Source: PubChem BioAssay (NCI)
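All cell lines were grown in 96-well plates and treated with compound for 48 hours. TGI marks complete inhibition of growth.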

Columns and labels:
Experiment in all cases: inhibition of tumour cell growth, NCI panel, 48 h
SR leukemia = test system: SR leukemia
MALME-3M melanoma = test system: MALME-3M melanoma
DMS 114 small cell lung = test system: DMS 114 small cell lung
A549 NSCLC = test system: A549 NSCLC
OVCAR-5 ovarian = test system: OVCAR-5 ovarian
DLD-1 colon = test system: DLD-1 colon
MDA-N = test system: MDA-N
MOLT-4 leukemia = test system: MOLT-4 leukemia
COLO 205 colon = test system: COLO 205 colon
HOP-18 NSCLC = test system: HOP-18 NSCLC
NCI-H23 lung = test system: NCI-H23 lung
EKVX NSCLC = test system: EKVX NSCLC
LOX IMVI melanoma = test system: LOX IMVI melanoma
XF 498 CNS = test system: XF 498 CNS
MDA-MB-435 = test system: MDA-MB-435
HCC-2998 colon = test system: HCC-2998 colon
SNB-75 CNS = test system: SNB-75 CNS
SF-268 CNS = test system: SF-268 CNS
TK-10 renal = test system: TK-10 renal
CAKI-1 renal = test system: CAKI-1 renal
SK-MEL-5 melanoma = test system: SK-MEL-5 melanoma
BT-549 breast = test system: BT-549 breast
K-562 leukemia = test system: K-562 leukemia
SK-MEL-2 melanoma = test system: SK-MEL-2 melanoma
SF-295 CNS = test system: SF-295 CNS
HCT-116 colon = test system: HCT-116 colon
NCI-H226 lung = test system: NCI-H226 lung
HOP-92 NSCLC = test system: HOP-92 NSCLC
SW-620 colon = test system: SW-620 colon
HS 578T breast = test system: HS 578T breast
OVCAR-3 ovarian = test system: OVCAR-3 ovarian
MDA-MB-231 breast = test system: MDA-MB-231 breast
UACC-62 melanoma = test system: UACC-62 melanoma
UO-31 renal = test system: UO-31 renal
DMS 273 small cell lung = test system: DMS 273 small cell lung
HL-60(TB) leukemia = test system: HL-60(TB) leukemia
KM12 colon = test system: KM12 colon
HOP-62 NSCLC = test system: HOP-62 NSCLC
SNB-78 CNS = test system: SNB-78 CNS
UACC-257 melanoma = test system: UACC-257 melanoma
CCRF-CEM leukemia = test system: CCRF-CEM leukemia
786-0 renal = test system: 786-0 renal
KM20L2 colon = test system: KM20L2 colon
SK-OV-3 ovarian = test system: SK-OV-3 ovarian
IGROV1 ovarian = test system: IGROV1 ovarian
OVCAR-8 ovarian = test system: OVCAR-8 ovarian
RXF 393 renal = test system: RXF 393 renal
DU-145 prostate = test system: DU-145 prostate
PC-3 prostate = test system: PC-3 prostate
MCF7 breast = test system: MCF7 breast
NCI/ADR-RES ovarian = test system: NCI/ADR-RES ovarian
LXFL 529 NSCLC = test system: LXFL 529 NSCLC
ACHN renal = test system: ACHN renal
SF-539 CNS = test system: SF-539 CNS
A498 renal = test system: A498 renal
HT29 colon = test system: HT29 colon
M19-MEL melanoma = test system: M19-MEL melanoma
U251 CNS = test system: U251 CNS
HCT-15 colon = test system: HCT-15 colon
SN12C renal = test system: SN12C renal
NCI-H460 lung = test system: NCI-H460 lung
OVCAR-4 ovarian = test system: OVCAR-4 ovarian
SNB-19 CNS = test system: SNB-19 CNS
RPMI-8226 leukemia = test system: RPMI-8226 leukemia
NCI-H522 lung = test system: NCI-H522 lung
M14 melanoma = test system: M14 melanoma
SK-MEL-28 melanoma = test system: SK-MEL-28 melanoma
T-47D breast = test system: T-47D breast
RXF-631 renal = test system: RXF-631 renal

**Q.** Which TGI (SR leukemia) does the source give for `CCOc1ccc(N=Cc2ccnc3ccccc23)cc1` here?
**A.** 6.76 µM

**Q.** And the TGI (MALME-3M melanoma)?
**A.** > 97.7 µM

**Q.** And the TGI (DMS 114 small cell lung)?
**A.** > 61.8 µM

**Q.** What about the TGI (A549 NSCLC) of the same molecule?
**A.** > 100 µM

**Q.** What about the TGI (OVCAR-5 ovarian) of the same molecule?
**A.** > 100 µM

**Q.** What about the TGI (DLD-1 colon) of the same molecule?
**A.** > 100 µM

**Q.** What about the TGI (MDA-N) of the same molecule?
**A.** > 100 µM

**Q.** What about the TGI (MOLT-4 leukemia) of the same molecule?
**A.** > 100 µM

**Q.** What about the TGI (COLO 205 colon) of the same molecule?
**A.** > 100 µM

**Q.** And the TGI (HOP-18 NSCLC)?
**A.** > 100 µM

**Q.** And the TGI (NCI-H23 lung)?
**A.** > 98 µM

**Q.** What about the TGI (EKVX NSCLC) of the same molecule?
**A.** > 100 µM

**Q.** What about the TGI (LOX IMVI melanoma) of the same molecule?
**A.** > 80.3 µM

**Q.** And the TGI (XF 498 CNS)?
**A.** > 100 µM

**Q.** What about the TGI (MDA-MB-435) of the same molecule?
**A.** > 100 µM

**Q.** And the TGI (HCC-2998 colon)?
**A.** 81.4 µM

**Q.** And the TGI (SNB-75 CNS)?
**A.** > 92.2 µM

**Q.** And the TGI (SF-268 CNS)?
**A.** > 84.2 µM

**Q.** And the TGI (TK-10 renal)?
**A.** > 100 µM

**Q.** And the TGI (CAKI-1 renal)?
**A.** > 100 µM

**Q.** And the TGI (SK-MEL-5 melanoma)?
**A.** > 82.6 µM

**Q.** What about the TGI (BT-549 breast) of the same molecule?
**A.** > 81.1 µM

**Q.** And the TGI (K-562 leukemia)?
**A.** 46.9 µM

**Q.** And the TGI (SK-MEL-2 melanoma)?
**A.** > 85.3 µM

**Q.** What about the TGI (SF-295 CNS) of the same molecule?
**A.** > 100 µM

**Q.** And the TGI (HCT-116 colon)?
**A.** 54.3 µM

**Q.** What about the TGI (NCI-H226 lung) of the same molecule?
**A.** > 100 µM

**Q.** And the TGI (HOP-92 NSCLC)?
**A.** > 100 µM

**Q.** And the TGI (SW-620 colon)?
**A.** > 100 µM

**Q.** And the TGI (HS 578T breast)?
**A.** > 100 µM

**Q.** And the TGI (OVCAR-3 ovarian)?
**A.** 73.1 µM

**Q.** And the TGI (MDA-MB-231 breast)?
**A.** > 75.9 µM

**Q.** And the TGI (UACC-62 melanoma)?
**A.** > 100 µM

**Q.** And the TGI (UO-31 renal)?
**A.** > 100 µM

**Q.** And the TGI (DMS 273 small cell lung)?
**A.** > 87.5 µM

**Q.** What about the TGI (HL-60(TB) leukemia) of the same molecule?
**A.** 17 µM

**Q.** What about the TGI (KM12 colon) of the same molecule?
**A.** > 89.9 µM

**Q.** What about the TGI (HOP-62 NSCLC) of the same molecule?
**A.** > 94 µM

**Q.** And the TGI (SNB-78 CNS)?
**A.** > 95.7 µM

**Q.** What about the TGI (UACC-257 melanoma) of the same molecule?
**A.** > 100 µM

**Q.** And the TGI (CCRF-CEM leukemia)?
**A.** 36.5 µM

**Q.** And the TGI (786-0 renal)?
**A.** > 100 µM

**Q.** What about the TGI (KM20L2 colon) of the same molecule?
**A.** > 94.8 µM

**Q.** What about the TGI (SK-OV-3 ovarian) of the same molecule?
**A.** > 83.3 µM

**Q.** What about the TGI (IGROV1 ovarian) of the same molecule?
**A.** > 100 µM

**Q.** And the TGI (OVCAR-8 ovarian)?
**A.** > 83.7 µM

**Q.** What about the TGI (RXF 393 renal) of the same molecule?
**A.** > 100 µM

**Q.** And the TGI (DU-145 prostate)?
**A.** > 100 µM

**Q.** And the TGI (PC-3 prostate)?
**A.** > 100 µM

**Q.** And the TGI (MCF7 breast)?
**A.** > 100 µM

**Q.** What about the TGI (NCI/ADR-RES ovarian) of the same molecule?
**A.** > 100 µM

**Q.** What about the TGI (LXFL 529 NSCLC) of the same molecule?
**A.** 47.4 µM

**Q.** What about the TGI (ACHN renal) of the same molecule?
**A.** > 100 µM

**Q.** And the TGI (SF-539 CNS)?
**A.** 85.9 µM

**Q.** What about the TGI (A498 renal) of the same molecule?
**A.** > 100 µM

**Q.** What about the TGI (HT29 colon) of the same molecule?
**A.** > 100 µM

**Q.** And the TGI (M19-MEL melanoma)?
**A.** > 100 µM

**Q.** What about the TGI (U251 CNS) of the same molecule?
**A.** > 68.1 µM

**Q.** And the TGI (HCT-15 colon)?
**A.** > 87.9 µM

**Q.** And the TGI (SN12C renal)?
**A.** > 91.5 µM

**Q.** And the TGI (NCI-H460 lung)?
**A.** > 100 µM

**Q.** And the TGI (OVCAR-4 ovarian)?
**A.** > 100 µM

**Q.** And the TGI (SNB-19 CNS)?
**A.** > 100 µM

**Q.** What about the TGI (RPMI-8226 leukemia) of the same molecule?
**A.** 35.1 µM

**Q.** What about the TGI (NCI-H522 lung) of the same molecule?
**A.** > 94.8 µM

**Q.** What about the TGI (M14 melanoma) of the same molecule?
**A.** 80 µM

**Q.** And the TGI (SK-MEL-28 melanoma)?
**A.** > 100 µM

**Q.** And the TGI (T-47D breast)?
**A.** > 100 µM

**Q.** Which results are given for `CN1CCCN2CCN(C)CCCN(CC1)CC2`?
**A.** TGI (SR leukemia): > 100 µM; TGI (MALME-3M melanoma): > 100 µM; TGI (DMS 114 small cell lung): > 100 µM; TGI (DLD-1 colon): > 100 µM; TGI (MOLT-4 leukemia): > 100 µM; TGI (COLO 205 colon): > 100 µM; TGI (NCI-H23 lung): > 100 µM; TGI (LOX IMVI melanoma): > 100 µM; TGI (XF 498 CNS): > 100 µM; TGI (HCC-2998 colon): > 100 µM; TGI (SNB-75 CNS): > 100 µM; TGI (SF-268 CNS): > 100 µM; TGI (CAKI-1 renal): > 100 µM; TGI (K-562 leukemia): > 100 µM; TGI (SK-MEL-2 melanoma): > 100 µM; TGI (HCT-116 colon): > 100 µM; TGI (NCI-H226 lung): > 100 µM; TGI (HOP-92 NSCLC): > 100 µM; TGI (UACC-62 melanoma): > 100 µM; TGI (UO-31 renal): > 100 µM; TGI (DMS 273 small cell lung): > 100 µM; TGI (HL-60(TB) leukemia): > 100 µM; TGI (HOP-62 NSCLC): > 100 µM; TGI (SNB-78 CNS): > 100 µM; TGI (CCRF-CEM leukemia): > 100 µM; TGI (786-0 renal): > 100 µM; TGI (SK-OV-3 ovarian): > 100 µM; TGI (IGROV1 ovarian): > 100 µM; TGI (RXF-631 renal): > 100 µM; TGI (LXFL 529 NSCLC): > 100 µM; TGI (SF-539 CNS): > 100 µM; TGI (A498 renal): > 100 µM; TGI (M19-MEL melanoma): > 100 µM; TGI (SN12C renal): > 100 µM; TGI (NCI-H460 lung): > 100 µM; TGI (OVCAR-4 ovarian): > 100 µM; TGI (RPMI-8226 leukemia): > 100 µM; TGI (NCI-H522 lung): > 100 µM; TGI (M14 melanoma): > 100 µM; TGI (SK-MEL-28 melanoma): > 100 µM
